# ChEMBL document CHEMBL1157402, “Solid-phase total synthesis of cyclic decapeptide phakellistatin 12” (2008)
# Peptide text beside a SMILES is read from it.
# Tested on: P388
# Experiment: Anticancer activity against mouse P388 cells
# Type: functional
# Settings: read-out: ED50 (the source's name)
row,EC50 [µg/mL],SMILES
1,0.2,CC[C@H](C)[C@@H]1NC(=O)[C@H](Cc2ccccc2)NC(=O)[C@@H]2CCCN2C(=O)[C@H](Cc2ccccc2)NC(=O)[C@@H]2CCCN2C(=O)[C@H](CCC(N)=O)NC(=O)[C@@H]2CCCN2C(=O)[C@H](Cc2ccccc2)NC1=O [PHAKELLI STATIN 11] (cyclo(FIFPQPFP))
2,0.23,CC[C@H](C)[C@@H]1NC(=O)[C@H](C)NC(=O)[C@H](CCSC)NC(=O)[C@H](C)NC(=O)[C@H](CC(N)=O)NC(=O)[C@H](Cc2ccccc2)NC(=O)[C@@H]2CCCN2C1=O [PHAKELLI STATIN 5] (cyclo(AIPFNAM))
3,0.34,CC[C@H](C)[C@@H]1NC(=O)[C@@H]2CCCN2C(=O)[C@H](Cc2ccccc2)NC(=O)[C@@H]2CCCN2C(=O)[C@H](Cc2ccc(O)cc2)NC(=O)[C@@H]2CCCN2C(=O)[C@H]([C@@H](C)CC)NC1=O [PHAKELLISTATIN 2] (cyclo(FPIIPYP))
4,2.8,CC[C@H](C)[C@@H]1NC(=O)[C@@H]2CCCN2C(=O)[C@@H]2CCCN2C(=O)[C@H]([C@@H](C)CC)NC(=O)[C@H](Cc2ccc(O)cc2)NC(=O)[C@@H]2CCCN2C(=O)[C@@H]2CCCN2C(=O)[C@H](CC(C)C)NC(=O)[C@H]([C@@H](C)O)NC(=O)[C@H](Cc2ccccc2)NC1=O [PHAKELLISTATIN 12] (cyclo(FTLPPYIPPI))
